Measurements as given in patent US12152038B2, “Vasopressin receptor antagonists and products and methods related thereto” (Neumora Therapeutics, Inc., priority 2017, dated 2024).
pIC50: −log10 of the molar value.

How the values were obtained:
[1] = biological target: T1, V1a receptors (Rattus norvegicus, UniProt P30560); test: AVP induced phospho-ERK measurement in rat choroid plexus (RCP) cells; format: cell-based; settings: RCP cells stimulated with AVP, pERK1/2 to total ERK1/2 ratio
T1 construct: Rat choroid plexus (RCP) cell lines express functional V1a receptors; endogenous in cells; host or cells: rat choroid plexus (RCP) cell line, RCP P9(18)
T1 sequence (P30560 whole entry): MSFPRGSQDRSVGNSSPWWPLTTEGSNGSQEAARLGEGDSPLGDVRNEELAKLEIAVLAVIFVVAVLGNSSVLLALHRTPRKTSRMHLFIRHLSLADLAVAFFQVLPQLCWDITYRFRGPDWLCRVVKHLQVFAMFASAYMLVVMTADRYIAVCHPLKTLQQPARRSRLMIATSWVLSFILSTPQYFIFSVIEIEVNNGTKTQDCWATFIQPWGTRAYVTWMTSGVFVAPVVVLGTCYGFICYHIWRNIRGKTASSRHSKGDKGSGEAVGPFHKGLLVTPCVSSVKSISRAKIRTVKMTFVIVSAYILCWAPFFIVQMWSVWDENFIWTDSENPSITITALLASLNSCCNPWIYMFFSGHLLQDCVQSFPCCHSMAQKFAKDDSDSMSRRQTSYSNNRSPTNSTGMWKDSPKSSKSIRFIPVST
Description: Rat choroid plexus (RCP) cell lines express functional V1a receptors measured by increased calcium concentrations in response to V1a receptor agonists (Battle et al., Biochem. Biophys. Res. Comm. 2000).
RCP P9(18) cells were seeded 30K/well, in 100 μl growth medium containing 10% FBS in polystyrene 96-well plates and incubated at 37° C., 5% CO2 and incubated overnight. The following day, the growth medium was replaced with 50 μl pre-warmed HBSS containing 20 mM HEPES and the cells were incubated at 37° C., 5% CO2 for 1.5 hrs. 1 mM AVP (Sigma V9879) was freshly prepared in distilled water in a glass vial and diluted to 3× concentrations in HBSS containing 20 mM HEPES and 0.1% BSA in glass vials and kept on ice. […] Final concentrations of AVP: 10, 100 or 1000 nM. […] Cells were lysed with 25 μl 4×CST lysis buffer containing protease and phosphatase inhibitors, PMSF and SDS and then stored at −80° C., for 48 h. The lysates were thawed, centrifuged at 2000 g for 30 min at 4° C. and 40 μl supernatants assayed for pERK1/2 (Thr202/Tyr204; Thr185/Tyr187) and total ERK1/2 using MSD kit K15107D. The MSD ECL data for the lysates were corrected for no cell blanks, then phospho-protein levels expressed as a ratio to the total ERK1/2 level. The ratios were expressed as fold-change from the vehicle-treated control at each timepoint.

[2] = test system: Male CD-1 mice; test: AVP induced scratching, digging and grooming behavior in mouse; format: in vivo; settings: po, AVP i.c.v., 15 minutes observation
From the text: Administration of Arginine-Vasopressin (AVP) intracerebroventricularly (i.c.v.) elicits characteristic scratching, digging and grooming behavior in mice that can be measured readily and is sensitive to blockade with vasopressin antagonists (Meisenberg, Ann N Y Acad Sci. 525:257-69, 1988; Bleickardt et. al., Psychopharmacology (Berl). 202(4):711-8, 2009).
Male CD-1 mice (Charles River Germany) weighing 22-25 g upon the study in-life were used for this study. Animals were housed in groups of 4-5 per cage in standard temperature (22±1° C.) and light-controlled environment (lights on from 7 am to 8 pm), with ad libitum access to food and water. Prior to commencing any procedures to the mice, they were allowed to habituate in the vivarium for a minimum of 7 days. Anesthesia was induced in a plexiglass chamber for 2-3 min with 5% isoflurane and maintained through a snout mask with 1-2% isoflurane thereafter. A homeothermic blanket system with a rectal probe was used to monitor and maintain the animal's body temperature at 37.0° C.±1.5° C. during the operation. Anesthetized mice were placed in a stereotaxic apparatus and skin between the ears shaved and disinfected with povidone-iodine solution (Betadine). A 10-μl Hamilton syringe with 28-gauge needle was used for the i.c.v. injections. All animals receive identical AVP injections (3.689 μM) or sterile saline (0.9% sodium chloride solution) into the right lateral ventricle at the following coordinates: AP=+0.5 mm; ML=+1.0 mm; DV=−2.5 mm (approximately from bregma). The actual coordinates were calculated by the distance from the point in midline between the eyes and no skin incision was made. […]
Mice were observed and video-recorded for 15 minutes following AVP/saline administration and behaviors were measured (in seconds) and a cumulative time was calculated. […] Using this assay, balovaptan (100 and 300 mg/kg, po), JNJ-17308616 (30, 100 mg/kg, po) and Compound No. 1-83B (100, 300, 500 mg/kg, po) were evaluated for antagonist activity to AVP-induced scratching behaviors.

- pIC50 ([1]; first study): 7.80
- pIC50 ([1]; second study): 7.70
Structure (SMILES): CC1COc2cc(Cl)ccc2N1C(=O)N1CC2(C1)CN(c1ncccn1)C2 (single isomer, unassigned) [1-83-B, (7-chloro-3-methyl-2,3-dihydro-4H-benzo[b][1,4]oxazin-4-yl)(6-(pyrimidin-2-yl)-2,6-diazaspiro[3.3]heptan-2-yl)methanone]
- antagonist activity to AVP-induced scratching behaviors ([2]; 300 mg/kg): effective
- antagonist activity to AVP-induced scratching behaviors ([2]; 500 mg/kg): effective
